According to publication PMC6934184, “Selective DNA-PKcs inhibition extends the therapeutic index of localized radiotherapy and chemotherapy” (The Journal of Clinical Investigation, 2019):

Columns and labels:
[1] = pharmacokinetic analysis in Calu-6 tumor–bearing mice; type: in vivo, mouse; settings: 30-mg/kg oral dose
Procedure: by determining the absorbance at 570 nm of SRB stain dissolved in Tris base (10 mM, pH 10.5) using a spectrophotometer (BMG Labtech).
In vivo pharmacokinetic analyses
All animal experiments were performed in accordance with the Animals (Scientific Procedures) 1986 Act. 8-9 week old mice were purchased from Charles River Laboratories and housed under specific pathogen-free conditions under 12 hour light/dark cycles.
Female CD-1, CD-1 nude, BALB/c nude and C57BL/6 mice were treated with NU5455 (30 or 100 mg/kg prepared in 1% (v/v) acetic acid or NMP:Encapsin (30% aq):PEG4000 (1:6:3 v/v/v) dosed by oral gavage. Blood samples were collected into heparinized tubes at 15, 30, 60, 180 and 360 minutes post-gavage.
Blood samples were centrifuged at 6700 x g for 3 minutes, the plasma removed and stored at -20°C prior to analysis for drug by HPLC with fluorescence detection. Aliquots of plasma (50 µl) were vigorously vortexed with acetonitrile (450 µl) and the precipitate removed by centrifugation at 6700 x g for 5 minutes. […]
Samples (20 µl) were applied to a 10 x 0.46 cm Genesis C18 4 µm column (Grace Vydac) fitted with an in-line filter. […] Analytes were detected by fluorescence at 390 nm following excitation at 242 nm. Plasma concentrations were determined using linear standard curves (0.01 µM – 10 µM, R2 > 0.98) generated by extracting compounds from […]

lung = test: radiation-induced lung fibrosis, Masson's trichrome, modified Ashcroft score; type: in vivo, C57BL/6 mice; settings: 30 mg/kg oral 30 min before and 5 h after each of 4 × 5 Gy; 24 weeks
Procedure: Whole-thorax irradiation (5 Gy) was administered to female C57BL/6 mice (6–8 weeks old) on days 1, 4, 7, and 10 with vehicle or NU5455 treatment. Whole lung sections were stained with Masson’s trichrome to visualize collagen deposition and scored using the modified Ashcroft scale proposed by Hübner et al. ([55]). Further details are provided in Supplemental Methods. […]
combined with 10 Gy thorax irradiation ( n = 6 - 7/group). For whole-thorax irradiation, anaesthetized mice were placed in the supine position in a customized rig. The whole thorax was exposed to X-ray radiation generated by the Gulmay Medical RS320 irradiation system (2.034 Gy/minute). The rest of the body was protected by lead shields. […]
Tumor growth in the remaining mice was monitored by bioluminescent imaging on days 0, 4, 8 and 15 post-treatment. […] Data were analyzed using LivingImage software (PerkinElmer). […]
Tissues were fixed in 4% paraformaldehyde (PFA) and paraffin -embedded. […] One tissue section from each of 3 mice per group was examined, and the whole section (excluding necrotic areas) analyzed using ImageScope analysis software (Aperio Technologies). γH2AX and 53BP1 foci were manually counted in 200 nuclei from each tumor sample. The percentage of γH2AX and 53BP1 positive nuclei in lung epithelial cells was quantified manually in normal lung samples across 5 randomly-chosen fields of view per […]

Structure (SMILES): CN(C(=O)CN1CCOCC1)c1ccc2sc3c(-c4cccc5c(=O)cc(N6CC7CCC(C6)O7)oc45)cccc3c2c1 [NU5455]
- period NU5455 concentrations in plasma, lung, tumor, or surrounding skin maintained at approximately 1 μM (0.6 μg/mL or μg/g tissue) or above [1]: 3 h
- radiation-induced lung fibrosis (lung): did not exacerbate radiation-induced lung fibrosis
